US6407071B1, “Method and composition for treating malignant cells” (Co-Enzyme Technology Ltd., priority 1998, dated 2002)
Values joined by “and” are separate entries in the source; they are usually repeats but may differ in a detail not shown here. Equal values may be shown once.

Legend:
human tumor cells = assay: Oxidizing agents found toxic to human tumor cells; assay type: cell-based
prostate cancer = assay: Six month study of P.S.A. levels in prostate cancer patients: glyceraldehyde, Glycosole and the combination; assay type: in vivo, human; set-up: key to Patient dead (#): # Dead; P.S.A. Levels during 6 month from initiation of treatment, 1 mo. / P.S.A. Levels during 6 month from initiation of treatment, 2 mo. / P.S.A. Levels during 6 month from initiation of treatment, 3 mo. / P.S.A. Levels during 6 month from initiation of treatment, 4 mo. / P.S.A. Levels during 6 month from initiation of treatment, 5 mo. / P.S.A. Levels during 6 month from initiation of treatment, 6 mo.: unit not given here
Method: A six month study was conducted comparing the anti-cancer effect of Glycosole (Glyc., the glucuronide of para-methoxy-phenol), glyceraldehyde, and a combination of the two compounds. These compounds were administered to patients suffering from prostate cancer separately and together. All of the patients suffered from bone metastases and no longer responded to conventional hormone therapy. Patients were administered either 3 grams glyceraldehyde per day, 6 grams per day of Glycosole, or a combination of both agents.

[1] = test system: localized malignant melanomas; conditions: cited from earlier work
cancer cells = assay: Toxicity to cancer cells in vitro relative to para-methoxy phenol; assay type: cell-based; conditions: compared with para-methoxy phenol

Compound: Oc1cccc(O)c1 [resorcinol]
- Toxicity to human tumor cells (human tumor cells): toxic to human tumor cells

Compound: NCCc1ccc(O)c(O)c1 [dopamine, 3,4-dihydroxyphenethylanine]
- Toxicity to human tumor cells (human tumor cells): toxic to human tumor cells

Compound: Oc1ccc(O)cc1 [hydroquinone]
- Toxicity to human tumor cells (human tumor cells): toxic to human tumor cells

Compound: CCCOc1ccc(O)cc1 [4-propoxy phenol]
- Toxicity to human tumor cells (human tumor cells): toxic to human tumor cells

Compound: COc1ccc(O)c(C(C)(C)C)c1 [butylated hydroxyanisole]
- Toxicity to human tumor cells (human tumor cells): toxic to human tumor cells

Compound: N[C@@H](Cc1ccc(O)cc1)C(=O)O [tyrosine]
- Toxicity to human tumor cells (human tumor cells): toxic to human tumor cells

Compound: COC(=O)c1cc(O)c(O)c(O)c1 [methyl gallate]
- Toxicity to human tumor cells (human tumor cells): toxic to human tumor cells

Compound: CCC(C)(C)c1ccc(O)cc1 [4-tert-amyl phenol]
- Toxicity to human tumor cells (human tumor cells): toxic to human tumor cells

Compound: 4-benzomethoxy phenol
- Toxicity to human tumor cells (human tumor cells): toxic to human tumor cells

Compound: O=CC(O)CO (stereo not shown) [Glycer Aldehyde, glyceraldehyde]
- P.S.A. Levels during 6 month from initiation of treatment, 1 mo. (prostate cancer; 1 mo., single patients, bone metastases, glyceraldehyde 3 g/day, Glycosole 6 g/day or both): 760 and 190 and 2250 and 340 and 910 and 150
- P.S.A. Levels during 6 month from initiation of treatment, 2 mo. (prostate cancer; 2 mo., single patients, glyceraldehyde 3 g/day, Glycosole 6 g/day or both): 680 and 180 and 1100 and 380 and 850 and 90
- P.S.A. Levels during 6 month from initiation of treatment, 3 mo. (prostate cancer; 3 mo., single patients, glyceraldehyde 3 g/day, Glycosole 6 g/day or both): 600 and 150 and 1000 and 310 and 740 and 80
- P.S.A. Levels during 6 month from initiation of treatment, 4 mo. (prostate cancer; 4 mo., single patients, glyceraldehyde 3 g/day, Glycosole 6 g/day or both): 580 and 145 and 980 and 280 and 760 and 80
- P.S.A. Levels during 6 month from initiation of treatment, 5 mo. (prostate cancer; 5 mo., single patients, glyceraldehyde 3 g/day, Glycosole 6 g/day or both): 540 and 140 and 220 and 680 and 64
- P.S.A. Levels during 6 month from initiation of treatment, 6 mo. (prostate cancer; 6 mo., single patients, glyceraldehyde 3 g/day, Glycosole 6 g/day or both): 420 and 100 and 180 and 360 and 60
- P.S.A. Levels during 6 month from initiation of treatment, 10 mo. (prostate cancer; 10 mo., single patients): 380 and 480 and 600
- P.S.A. Levels during 6 month from initiation of treatment, 11 mo. (prostate cancer; 11 mo., single patients): 920 and 700
- P.S.A. Levels during 6 month from initiation of treatment, 12 mo. (prostate cancer; 12 mo., single patients): 846
- Patient dead (#) (prostate cancer; marked in column 5 mo.): #
- Patient dead (#) (prostate cancer; marked in column 11 mo.): #
- Patient dead (#) (prostate cancer; marked in column 12 mo.): #
- Response of patients to the treatment (prostate cancer; prostate cancer with bone metastases, 3 grams glyceraldehyde per day, 6 grams per day of Glycosole, or both): None of the patients administered glyceraldehyde alone responded

Compound: N[C@@H](Cc1cc(O)c(O)cc1O)C(=O)O [6-hydroxydopa, 3,4,6-trihydroxyphenylalanine]
- Toxicity to human tumor cells (human tumor cells): toxic to human tumor cells

Compound: N[C@@H](Cc1ccc(O)c(O)c1)C(=O)O [L-3,4-dihydroxyphenylalanine]
- Toxicity to human tumor cells (human tumor cells): toxic to human tumor cells

Compound: COc1ccc(O)cc1 [4-hydroxyanisole]
- Toxicity to human tumor cells (human tumor cells): toxic to human tumor cells
- Effect on localized malignant melanomas ([1]; intra-arterial infusion): underwent regression
- Therapeutic effect in malignant melanoma ([1]; intravenous administration): not therapeutically effective

Compound: CCC(C)(C)c1ccc(O[C@@H]2O[C@H](C(=O)O)[C@@H](O)[C@H](O)[C@H]2O)cc1 [4-tert-amyl phenyl glucuronide]
- Toxicity to cancer cells in vitro relative to para-methoxy phenol (cancer cells): 5.5 times
